Test results as given in patent US9145374B2, “Shikimate pathway inhibitors and the use thereof” (National Tsing Hua University, priority 2013, dated 2015).
≈ marks a conversion by molar mass, not a printed value. Where “and” joins values, the source holds several entries; their conditions need not be identical. Equal values may be shown once.

Experiments:
[1] = target: T1, H. pylori Shikimate Dehydrogenase (HpSDH) (Helicobacter pylori, UniProt P56119); assay: Inhibition activity assay toward HpSDH; type: biochemical; conditions: for IC50: IC50 toward HpSDH, wild type (26695) HpSDH recombinant protein; for inhibition activity toward HpSDH (in words): preliminary screening concentration 100 μM
T1 construct: made in house; host or cells: E. coli BL21
T1 sequence (P56119 whole entry): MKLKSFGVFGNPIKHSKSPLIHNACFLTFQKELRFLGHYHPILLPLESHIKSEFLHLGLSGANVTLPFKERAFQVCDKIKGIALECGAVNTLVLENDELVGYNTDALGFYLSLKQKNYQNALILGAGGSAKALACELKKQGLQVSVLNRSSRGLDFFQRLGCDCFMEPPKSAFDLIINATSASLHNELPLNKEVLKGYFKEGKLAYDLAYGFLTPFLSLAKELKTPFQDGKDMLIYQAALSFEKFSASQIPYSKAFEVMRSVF
Source text: The recombinant HpSDH (aroE) was cloned in pET-28a plasmid and transformed into E. coli strain BL21 as expression host.
Relative HpSDH activity calculations were based on the initial velocity that absorbance at the 5 to 10% of the time when reaction absorbance reached the maximum level. The variable slope of this time interval represented the reaction rate of HpSDH at various concentration of compound and normalized with the negative control HpSDH (without inhibitor) which represented 100% activity.
To evaluate structure activity relationship (SAR), all the synthesized compounds in SDH inhibition activity on wild type HpSDH recombinant protein was evaluated. All the datas of effective compounds were expressed as IC50 value after treated with different compounds. In priminary screening, using 100 μM as priminary screening concentration to evaluate all synthesized compounds.
(§1) The enzymatic activity of HpSDH was measured in the direction of reduction of NADP^+ to NADPH in the present of shikimic acid at 340 nm absorbance and conducted in 96-well plate ELISA reader. The final concentration of shikimic acid and NADP^+ were 2 mM, and the final protein concentration was 100 nM. Shikimic acid was added by injector needle equipped in ELISA reader to ensure the measurements were made at the same time spacing. NADPH would accumulate along with reaction, and the absorbance at 340 nm would be measured in every cycle of HpSDH reaction.

H. pylori [2] = assay: Minimum bactericidal concentration assay (MBC assay) against H. pylori; type: cell-based, Helicobacter pylori; conditions: for MBC: Helicobacter pylori; for anti-bacterial activity toward H. pylori (in words): wild type (26695) and clinical isolated strains
Experimental: To evaluate the anti-H. pylori activity, the minimum bactericidal concentration (MBC) value of compounds was determined. The MBC value of standard antibiotics, clarithromycine (CLR) and metronidazole (MTZ) were served as the positive control.
Wild type (26695, as reference strain) was cultured on brucella broth agar plate containing 1% IsovialeX (Becton, Dickinson and Company, USA) and 10% sheep blood in microaerophilic environment (5% O2, 10% CO2, and 85% N2), 37° C. Clinical strains (v574, v633, v1086, v1254, v1267, v1354 and v2311) were cultured on brucella broth agar plate containing 1% IsovialeX and 20%-30% sheep blood in microaerophilic environment (5% O2, 10% CO2, and 85% N2), 37° C.
Wild type and selected clinical H. pylori strains was cultured for 24 to 36 hours and measured by Cell density meter, O.D. 680 at 0.87-0.9. H. pylori and selected compounds with serial concentration were mixed in Brucella-broth (BD) with 10% of FBS in 24-well plate, and total volume of each well was 300 μl, cultured under 37° C. with 180 rpm shaking. After incubated for 24 hours, 3 μl of each well was seeding on blood agar plate for another 48 hours culture. […] The final concentration of DMSO in the assay was less than 5% to avoid any effect in the growth of H. pylori at this experiment.

[3] = target: T1, H. pylori Shikimate Dehydrogenase (HpSDH); assay: Enzymatic kinetics of effective compounds toward HpSDH; type: biochemical; conditions: for inhibition type toward NADP+ / inhibition type toward shikimic acid: HpSDH
Experimental: as §1
To study the inhibition mode of these compounds and inhibition type to shikimic acid and NADP^+, different concentrations of inhibitors and graded concentrations of substrates by activity assay was examined.

H. pylori [4] = assay: Synergistic effect of compound 25a in MBC test against H. pylori; type: cell-based, Helicobacter pylori; conditions: for MBC: Helicobacter pylori, 24 h, read-out: MBC, single treatment

Row | Structure (SMILES) | IC50 [1] | inhibition activity toward HpSDH (in words) [1] | MBC (H. pylori [2]; W.T 26695) [µg/mL] | MBC (H. pylori [2]; clinical isolated strain v574) [µg/mL] | MBC (H. pylori [2]; clinical isolated strain v633) [µg/mL] | MBC (H. pylori [2]; clinical isolated strain v1086) [µg/mL] | MBC (H. pylori [2]; clinical isolated strain v1254) [µg/mL] | MBC (H. pylori [2]; clinical isolated strain v1267) [µg/mL] | MBC (H. pylori [2]; clinical isolated strain v1354) [µg/mL] | MBC (H. pylori [2]; clinical isolated strain v2311) [µg/mL] | MBC value against H. pylori (H. pylori [2]; W.T 26695) [µg/mL] | MBC value against H. pylori (H. pylori [2]; clinical isolated strain v633) [µg/mL] | Ki [3] [µM] | inhibition type toward NADP+ [3] | inhibition type toward shikimic acid [3] | also measured
1 | O=C1NC(=O)C(=C/C=C/c2ccccc2)C(=O)N1 [7a] | 32.7 µM | more effective inhibitors |  |  |  |  |  |  |  |  |  |  |  |  |  | 
2 | O=C1NC(=O)C(=C/C=C/c2ccc([N+](=O)[O-])cc2)C(=O)N1 [7b] |  |  | 8 (≈ 27.9 µM) | 8 (≈ 27.9 µM) | 4 (≈ 13.9 µM) | 8 (≈ 27.9 µM) | 8 (≈ 27.9 µM) | 8 (≈ 27.9 µM) | 8 (≈ 27.9 µM) | 16 (≈ 55.7 µM) | 8.0 (≈ 27.9 µM) | 4.0 (≈ 13.9 µM) |  |  |  | 
3 | COc1ccccc1/C=C/C=C1C(=O)NC(=O)NC1=O [7c] | 33.7 µM | more effective inhibitors |  |  |  |  |  |  |  |  |  |  |  |  |  | MBC (H. pylori [2]; 24 h, W.T 26695): 16 µg/mL (≈ 58.8 µM); MBC (H. pylori [2]; 24 h, clinical isolated strain v574): 16 µg/mL (≈ 58.8 µM); MBC (H. pylori [2]; 24 h, clinical isolated strain v633): 16 µg/mL (≈ 58.8 µM); MBC (H. pylori [2]; 24 h, clinical isolated strain v1086): 8 µg/mL (≈ 29.4 µM); MBC (H. pylori [2]; 24 h, clinical isolated strain v1254): 16 µg/mL (≈ 58.8 µM); MBC (H. pylori [2]; 24 h, clinical isolated strain v1267): 16 µg/mL (≈ 58.8 µM); MBC (H. pylori [2]; 24 h, clinical isolated strain v1354): 16 µg/mL (≈ 58.8 µM); MBC (H. pylori [2]; 24 h, clinical isolated strain v2311): 16 µg/mL (≈ 58.8 µM)
4 | COc1ccc(/C=C/C=C2C(=O)NC(=O)NC2=O)cc1 [7d] | 35.1 µM | more effective inhibitors | 8 (≈ 29.4 µM) | 8 (≈ 29.4 µM) | 4 (≈ 14.7 µM) | 8 (≈ 29.4 µM) | 8 (≈ 29.4 µM) | 8 (≈ 29.4 µM) | 8 (≈ 29.4 µM) | 16 (≈ 58.8 µM) | 8.0 (≈ 29.4 µM) | 4.0 (≈ 14.7 µM) |  |  |  | anti-bacterial activity toward H. pylori (in words) (H. pylori [2]): three most potent inhibitors
5 | CSc1ccc(/C=C/C=C2C(=O)NC(=O)NC2=O)cc1 [7e] | 22 µM and 11 to 22 µM | more effective inhibitors | 8 (≈ 27.7 µM) | 8 (≈ 27.7 µM) | 8 (≈ 27.7 µM) | 8 (≈ 27.7 µM) | 8 (≈ 27.7 µM) | 8 (≈ 27.7 µM) | 8 (≈ 27.7 µM) | 8 (≈ 27.7 µM) | 8.0 (≈ 27.7 µM) |  | 2.67 | competitive inhibition | non-competitive or uncompetitive | anti-bacterial activity toward H. pylori (in words) (H. pylori [2]): three most potent inhibitors
6 | COc1cccc(OC)c1/C=C/C=C1C(=O)NC(=O)NC1=O [7h] |  | more effective inhibitors | 8 (≈ 26.5 µM) | 8 (≈ 26.5 µM) | 4 (≈ 13.2 µM) | 16 (≈ 52.9 µM) | 32 (≈ 106 µM) | 8 (≈ 26.5 µM) | 4 (≈ 13.2 µM) | 16 (≈ 52.9 µM) | 8.0 (≈ 26.5 µM) | 4.0 (≈ 13.2 µM) |  |  |  | MBC value against H. pylori (H. pylori [2]; clinical isolated strain v1354): 4.0 µg/mL (≈ 13.2 µM)
7 | COc1cc(/C=C/C=C2C(=O)NC(=O)NC2=O)cc(OC)c1 [7i] | 20.3 µM and 11 to 22 µM | more effective inhibitors | 8 (≈ 26.5 µM) | 8 (≈ 26.5 µM) | 4 (≈ 13.2 µM) | 8 (≈ 26.5 µM) | 32 (≈ 106 µM) | 8 (≈ 26.5 µM) | 4 (≈ 13.2 µM) | 16 (≈ 52.9 µM) | 8.0 (≈ 26.5 µM) | 4.0 (≈ 13.2 µM) | 3.81 | competitive inhibition | non-competitive or uncompetitive | MBC value against H. pylori (H. pylori [2]; clinical isolated strain v1354): 4.0 µg/mL (≈ 13.2 µM)
8 | C=CCN1C(=O)C(=C/C=C/c2ccccc2)C(=O)N(CC=C)C1=O [25a, (E)-1,3-diallyl-5-(3-phenylallylidene)pyrimidine-2,4,6(1H,3H,5H)-trione] | 11.4 µM and 11 to 22 µM | more effective inhibitors | 8 (≈ 24.8 µM) | 8 (≈ 24.8 µM) | 16 (≈ 49.6 µM) | 8 (≈ 24.8 µM) | 8 (≈ 24.8 µM) | 8 (≈ 24.8 µM) | 8 (≈ 24.8 µM) | 8 (≈ 24.8 µM) | 8.0 (≈ 24.8 µM) |  | 2.01 | competitive inhibition | non-competitive or uncompetitive | MBC (H. pylori [4]): 6 µg/mL; MBC, single treatment (H. pylori [4]; v574 MTR-resistant strain): 6.0 µg/mL; MBC, single treatment (H. pylori [4]; v1086 CLR-resistant strain): 6.0 µg/mL; anti-bacterial activity toward H. pylori (in words) (H. pylori [2]): three most potent inhibitors
9 | Cc1cc(C)cc(N2C(=O)NC(=O)/C(=C\C=C\c3ccccc3)C2=O)c1 [CB6010554] |  |  | 10 (≈ 28.9 µM) |  |  |  |  |  |  |  | 10.0 (≈ 28.9 µM) |  |  |  |  | 
10 | C=CCN1C(=O)NC(=O)/C(=C/C=C/c2ccccc2)C1=O [CB6942859] |  |  | 5 (≈ 17.7 µM) |  |  |  |  |  |  |  | 5.0 (≈ 17.7 µM) |  |  |  |  | 
11 | CC[C@H]1OC(=O)[C@H](C)[C@@H](O[C@H]2C[C@@](C)(OC)[C@@H](O)[C@H](C)O2)[C@H](C)[C@@H](O[C@@H]2O[C@H](C)C[C@H](N(C)C)[C@H]2O)[C@](C)(OC)C[C@@H](C)C(=O)[C@H](C)[C@@H](O)[C@]1(C)O [CLR, clarithromycin] |  |  |  |  |  |  |  |  |  |  |  |  |  |  |  | growth of resistant strain v1086 (in words) (H. pylori [4]; CLR 4 mg/L alone or with compound 25a 2 mg/L): cannot completely inhibit the growth; MBC (H. pylori [4]; 26695 wild type): < 1 µg/mL; MBC (H. pylori [4]; v574 MTR-resistant strain): < 1 µg/mL; MBC (H. pylori [4]; v1086 CLR-resistant strain): 8 µg/mL
12 | Cc1ncc([N+](=O)[O-])n1CCO [MTR, metronidazole] |  |  |  |  |  |  |  |  |  |  |  |  |  |  |  | MBC (H. pylori [4]; 26695 wild type): < 1 µg/mL; MBC (H. pylori [4]; v574 MTR-resistant strain): 32 µg/mL; MBC (H. pylori [4]; v1086 CLR-resistant strain): < 1 µg/mL; growth of v574 strain (in words) (H. pylori [4]; MTR 16 mg/L alone or with compound 25a 2 mg/L): cannot suppressed the growth; dosage needed to inhibit strain v574 relative to compound 25a (H. pylori [4]; v574 metronidazole resistant strain): 5 times
13 | O=C1NC(=O)C(=C/C=C/c2ccc(NC(=O)c3ccccc3)cc2)C(=O)N1 [compound 17, (E)-N-(4-(3-(2,4,6-trioxotetrahydropyrimidin-5(2H)-ylidene)prop-1-en-1-yl)phenyl)benzamide] | 16.1 µM and 11 to 22 µM | more effective inhibitors | 16 (≈ 44.3 µM) | 16 (≈ 44.3 µM) | 16 (≈ 44.3 µM) | 16 (≈ 44.3 µM) | 16 (≈ 44.3 µM) | 16 (≈ 44.3 µM) | 8 (≈ 22.1 µM) | 16 (≈ 44.3 µM) |  |  | 6.93 | competitive inhibition | non-competitive or uncompetitive | 
